Data as given in patent US20240376085A1 (Janssen Pharmaceutica NV, priority 2021, published 2024).

Tests used:
IL-17A : IL-17RA binding = target: T1, IL-17A : IL-17RA binding (Homo sapiens, UniProt Q16552, K93Q); assay: IL-17A(FLAG-tagged):IL-17RA(His-tagged) binding disruption Eu-HTRF assay, Protocol 1; conditions: FLAG-IL-17A 2.5 nM at 2x final concentration; average if tested more than once
T1 construct: Name: IL-17A-Flag
Outline: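 IC50 came from a one-site competition fit of the acceptor/donor (665/620 nm) HTRF ratio. His-tagged IL-17RA, Eu-anti-FLAG and D2-anti-His were added after a 1 h rt compound preincubation with FLAG-tagged IL-17A dimer in PBS/0.01% Triton X-100, followed by 2 h at rt before reading.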

[1] = test system: IL-17A-induced G-CSF production in human normal keratinocyte (NHK); assay: NHK assay: IL-17A-induced G-CSF production in normal human keratinocytes; assay type: cell-based; conditions: 24 h, IL-17A 5 ng/mL, average if tested more than once
Outline: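 Compound titrations are first mixed with recombinant human IL-17A for 1 h at room temperature. The mixture goes onto adult normal human keratinocytes (final IL-17A 5 ng/mL, 5% FBS, 0.2% DMSO) for 24 h at 37 °C. Secreted G-CSF is then measured by HTRF and IC50 fitted.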

T1 sequence (Q16552 with tags, fused parts or gaps K93Q): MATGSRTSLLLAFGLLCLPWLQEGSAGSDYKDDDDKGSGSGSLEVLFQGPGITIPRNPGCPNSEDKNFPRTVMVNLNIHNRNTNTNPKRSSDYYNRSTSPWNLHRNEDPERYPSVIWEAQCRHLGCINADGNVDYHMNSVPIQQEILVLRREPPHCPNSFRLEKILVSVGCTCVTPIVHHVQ

Structure (SMILES) | IC50 (IL-17A : IL-17RA binding) [nM] | IC50 ([1]; Homo sapiens, Keratinocyte) [nM] | IC50 [1] [nM]
CC(CC(=O)N[C@@H](c1ccc2[nH]c([C@H](COC(C)(C)C(F)(F)F)NC(=O)c3nonc3C3CC3)nc2c1)C1CC1)C(F)F (single isomer, unassigned) [Example 175, 4-Cyclopropyl-N—((R)-1-(5-((R)-cyclopropyl((R*)-4,4-difluoro-3-methylbutanamido)methyl)-1H-benzo[d]imidazol-2-yl)-2-((1,1,1-trifluoro-2-methylpropan-2-yl)oxy)ethyl)-1,2,5-oxadiazole-3-carboxamide] | < 50 | > 100 | 
CC(CC(=O)N[C@@H](c1ccc2[nH]c([C@H](COC(C)(C)C(F)(F)F)NC(=O)c3nonc3C3CC3)nc2c1)C1CC1)C(F)F (single isomer, unassigned) [Example 176, 4-Cyclopropyl-N—((R)-1-(5-((R)-cyclopropyl((S*)-4,4-difluoro-3-methylbutanamido)methyl)-1H-benzo[d]imidazol-2-yl)-2-((1,1,1-trifluoro-2-methylpropan-2-yl)oxy)ethyl)-1,2,5-oxadiazole-3-carboxamide] | < 50 |  | > 100
Cc1nonc1C(=O)N[C@@H](CC(C)(C)C(F)(F)F)c1nc2ccc([C@H](NC(=O)CC(C)C(F)(F)F)C3CC3)cc2[nH]1 (single isomer, unassigned) [Example 179, N—((S)-1-(6-((R)-Cyclopropyl((R*)-4,4,4-trifluoro-3-methylbutanamido)methyl)-1H-benzo[d]imidazol-2-yl)-4,4,4-trifluoro-3,3-dimethylbutyl)-4-methyl-1,2,5-oxadiazole-3-carboxamide] | < 50 | > 100 | 
Cc1nonc1C(=O)N[C@@H](CC(C)(C)C(F)(F)F)c1nc2ccc([C@H](NC(=O)CC(C)C(F)(F)F)C3CC3)cc2[nH]1 (single isomer, unassigned) [Example 180, N—((S)-1-(6-((R)-Cyclopropyl((S*)-4,4,4-trifluoro-3-methylbutanamido)methyl)-1H-benzo[d]imidazol-2-yl)-4,4,4-trifluoro-3,3-dimethylbutyl)-4-methyl-1,2,5-oxadiazole-3-carboxamide] | 50 to 100 |  | > 100
CC(CC(=O)N[C@@H](c1ccc2nc([C@H](CC(C)(C)C(F)(F)F)NC(=O)c3nonc3C3CC3)[nH]c2c1)C1CC1)C(F)(F)F (single isomer, unassigned) [Example 181, 4-Cyclopropyl-N—((S)-1-(6-((R)-cyclopropyl((R*)-4,4,4-trifluoro-3-methylbutanamido)methyl)-1H-benzo[d]imidazol-2-yl)-4,4,4-trifluoro-3,3-dimethylbutyl)-1,2,5-oxadiazole-3-carboxamide] | < 50 | < 50 | 
CC(CC(=O)N[C@@H](c1ccc2nc([C@H](CC(C)(C)C(F)(F)F)NC(=O)c3nonc3C3CC3)[nH]c2c1)C1CC1)C(F)(F)F (single isomer, unassigned) [Example 182, 4-Cyclopropyl-N—((S)-1-(6-((R)-cyclopropyl((S*)-4,4,4-trifluoro-3-methylbutanamido)methyl)-1H-benzo[d]imidazol-2-yl)-4,4,4-trifluoro-3,3-dimethylbutyl)-1,2,5-oxadiazole-3-carboxamide] | < 50 |  | < 50
Cc1nonc1C(=O)N[C@@H](CC(C)(C)C(F)(F)F)c1nc2ccc([C@H](NC(=O)CC3CC3(F)F)C3CC3)cc2[nH]1 (single isomer, unassigned) [Example 183, N—((S)-1-(6-((R)-Cyclopropyl(2-((R*)-2,2-difluorocyclopropyl)acetamido)methyl)-1H-benzo[d]imidazol-2-yl)-4,4,4-trifluoro-3,3-dimethylbutyl)-4-methyl-1,2,5-oxadiazole-3-carboxamide] | < 50 | > 100 | 
Cc1nonc1C(=O)N[C@@H](CC(C)(C)C(F)(F)F)c1nc2ccc([C@H](NC(=O)CC3CC3(F)F)C3CC3)cc2[nH]1 (single isomer, unassigned) [Example 184, N—((S)-1-(6-((R)-Cyclopropyl(2-((S*)-2,2-difluorocyclopropyl)acetamido)methyl)-1H-benzo[d]imidazol-2-yl)-4,4,4-trifluoro-3,3-dimethylbutyl)-4-methyl-1,2,5-oxadiazole-3-carboxamide] | 50 to 100 |  | > 100
C[C@@H](NC(=O)CCC(F)(F)F)c1ccc2[nH]c(C(CC(C)(C)C(F)(F)F)NC(=O)c3cnn(CC4CC4)n3)nc2c1 (single isomer, unassigned) [Example 191, 2-(Cyclopropylmethyl)-N—((R*)-4,4,4-trifluoro-3,3-dimethyl-1-(5-((R)-1-(4,4,4-trifluorobutanamido)ethyl)-1H-benzo[d]imidazol-2-yl)butyl)-2H-1,2,3-triazole-4-carboxamide] | > 100 | > 100 | 
CC(C)n1ncc(F)c1C(=O)NC(CC(C)(C)C(F)(F)F)c1nc2cc([C@@H](C)NC(=O)CCC(F)(F)F)ccc2[nH]1 (single isomer, unassigned) [Example 194, 4-Fluoro-1-isopropyl-N—((S*)-4,4,4-trifluoro-3,3-dimethyl-1-(5-((R)-1-(4,4,4-trifluorobutanamido)ethyl)-1H-benzo[d]imidazol-2-yl)butyl)-1H-pyrazole-5-carboxamide] | > 100 | > 100 | 
C[C@@H](NC(=O)CCC(F)(F)F)c1ccc2[nH]c(C(CC(C)(C)C(F)(F)F)NC(=O)c3ncnn3CC3CC3)nc2c1 (single isomer, unassigned) [Example 195, 1-(Cyclopropylmethyl)-N—((S*)-4,4,4-trifluoro-3,3-dimethyl-(5-((R)-1-(4,4,4-trifluorobutanamido)ethyl)-1H-benzo[d]imidazol-2-yl)butyl)-1H-1,2,4-triazole-5-carboxamide] | > 100 | > 100 | 
CC(C)n1ncnc1C(=O)NC(CC(C)(C)C(F)(F)F)c1nc2cc([C@@H](C)NC(=O)CCC(F)(F)F)ccc2[nH]1 (single isomer, unassigned) [Example 196, 1-Isopropyl-N—((S*)-4,4,4-trifluoro-3,3-dimethyl-1-(5-((R)-1-(4,4,4-trifluorobutanamido)ethyl)-1H-benzo[d]imidazol-2-yl)butyl)-1H-1,2,4-triazole-5-carboxamide] | > 100 | > 100 | 
CCc1nonc1C(=O)NC(CC(C)(C)C(F)(F)F)c1nc2cc([C@@H](C)NC(=O)CCC(F)(F)F)ccc2[nH]1 (single isomer, unassigned) [Example 197, 4-Ethyl-N—((S*)-4,4,4-trifluoro-3,3-dimethyl-1-(5-((R)-1-(4,4,4-trifluorobutanamido)ethyl)-1H-benzo[d]imidazol-2-yl)butyl)-1,2,5-oxadiazole-3-carboxamide] | < 50 | 50 to 100 | 
Cc1nonc1C(=O)NC(CC(C)(C)C(F)(F)F)c1nc2cc([C@@H](C)NC(=O)CCC(F)(F)F)ccc2[nH]1 (single isomer, unassigned) [Example 198, 4-Methyl-N—((S*)-4,4,4-trifluoro-3,3-dimethyl-1-(5-((R)-1-(4,4,4-trifluorobutanamido)ethyl)-1H-benzo[d]imidazol-2-yl)butyl)-1,2,5-oxadiazole-3-carboxamide] | 50 to 100 | > 100 | 
C[C@@H](NC(=O)CCC(F)(F)F)c1ccc2[nH]c(C(CC(C)(C)C(F)(F)F)NC(=O)c3cnn(CC4CC4)n3)nc2c1 (single isomer, unassigned) [Example 218, 2-(Cyclopropylmethyl)-N—((S*)-4,4,4-trifluoro-3,3-dimethyl-1-(5-((R)-1-(4,4,4-trifluorobutanamido)ethyl)-1H-benzo[d]imidazol-2-yl)butyl)-2H-1,2,3-triazole-4-carboxamide] | > 100 |  | > 100
C[C@@H](NC(=O)CCC(F)(F)F)c1ccc2[nH]c(C(CC(C)(C)C(F)(F)F)NC(=O)c3cnn(CCC(F)(F)F)n3)nc2c1 (single isomer, unassigned) [Example 219, N—((S*)-4,4,4-Trifluoro-3,3-dimethyl-1-(5-((R)-1-(4,4,4-trifluorobutanamido)ethyl)-1H-benzo[d]imidazol-2-yl)butyl)-2-(3,3,3-trifluoropropyl)-2H-1,2,3-triazole-4-carboxamide] | > 100 | > 100 | 
CC(NC(=O)CCC(F)(F)F)c1ccc2nc([C@H](CC(C)(C)C(F)(F)F)NC(=O)c3ccnn3CCC(F)(F)F)[nH]c2c1 (single isomer, unassigned) [Example 229, N—((S)-4,4,4-Trifluoro-3,3-dimethyl-1-(6-((S*)-1-(4,4,4-trifluorobutanamido)ethyl)-1H-benzo[d]imidazol-2-yl)butyl)-1-(3,3,3-trifluoropropyl)-1H-pyrazole-5-carboxamide] | > 100 | > 100 | 
CC(NC(=O)CCC(F)(F)F)c1ccc2nc([C@H](CC(C)(C)C(F)(F)F)NC(=O)c3ccnn3CCC(F)(F)F)[nH]c2c1 (single isomer, unassigned) [Example 230, N—((S)-4,4,4-Trifluoro-3,3-dimethyl-1-(6-((R*)-1-(4,4,4-trifluorobutanamido)ethyl)-1H-benzo[d]imidazol-2-yl)butyl)-1-(3,3,3-trifluoropropyl)-1H-pyrazole-5-carboxamide] | > 100 |  | 50 to 100
CC(NC(=O)CCC(F)(F)F)c1ccc2nc([C@H](CC(C)(C)C(F)(F)F)NC(=O)c3ccnn3C(C)C)[nH]c2c1 (single isomer, unassigned) [Example 231, 1-Isopropyl-N—((S)-4,4,4-trifluoro-3,3-dimethyl-1-(6-((S*)-1-(4,4,4-trifluorobutanamido)ethyl)-1H-benzo[d]imidazol-2-yl)butyl)-1H-pyrazole-5-carboxamide] | > 100 | > 100 | 
